Results as given in the NIST ThermoML archive (doi:10.1016/j.fluid.2010.12.008).
± gives the expanded uncertainty stated by the source. Values belong to the compound of their own block, whether it stands above or below them.

What was measured:
[1] = for Normal melting temperature: Crystal 1
[2] = Molar enthalpy of transition or fusion; conditions: DSC

SMILES: CCCCCCO [hexan-1-ol]
Normal melting temperature ([1]; visual observation): -45.00 ± 1.1 °C

SMILES: CCCC[N+]1(C)CCCCC1.N#C[S-] [1-butyl-1-methylpiperidinium thiocyanate]
Molar enthalpy of transition or fusion ([2]; Crystal 1): 3.02 ± 0.2 kJ/mol
Molar enthalpy of transition or fusion ([2]; Crystal 2): 15.3 ± 0.49 kJ/mol
Normal melting temperature ([1]; DTA): 31.17 ± 0.5 °C
Triple point temperature ([1]; Crystal 2, DTA): 274.2 ± 0.5 K
Glass transition temperature ([1]; Glass, DTA): -71.8 ± 10 °C

SMILES: CC[N+]1(C)CCCCC1.O=S(=O)([N-]S(=O)(=O)C(F)(F)F)C(F)(F)F
Molar enthalpy of transition or fusion ([2]; Crystal 1): 16.6 ± 0.52 kJ/mol
Molar enthalpy of transition or fusion ([2]; Crystal 2): 3.53 ± 0.19 kJ/mol
Molar enthalpy of transition or fusion ([2]; Crystal 3): 2.45 ± 0.17 kJ/mol
Normal melting temperature ([1]; DTA): 84.89 ± 0.5 °C
Normal melting temperature ([1]; visual observation): 84.56 ± 0.5 °C
Triple point temperature ([1]; Crystal 2, visual observation): 289.6 ± 0.5 K
Triple point temperature ([1]; Crystal 3, DTA): 215.8 ± 0.5 K

SMILES: O [water]
Normal melting temperature ([1]; visual observation): 0.00 ± 1.1 °C

SMILES: CCCCCCCCCCO [decan-1-ol]
Normal melting temperature ([1]; visual observation): 7.00 ± 1.1 °C

SMILES: CCCCCCCCCCCCO [dodecan-1-ol]
Normal melting temperature ([1]; visual observation): 24.00 ± 1.1 °C

Continued, values first:

Normal melting temperature ([1]; visual observation): -34.60 ± 1.1 °C
SMILES: CCCCCCCO [heptan-1-ol]

Normal melting temperature ([1]; visual observation): -16.00 ± 1.1 °C
SMILES: CCCCCCCCO [octan-1-ol]
